The values below come from US9084770B2, “Modulation of insulin like growth factor I receptor expression in cancer” (Antisense Therapeutics, Ltd., priority 2008, dated 2015).

Data set [1] relates to LNCaP cells. Put plainly: LNCaP cell viability, crystal violet assay. Format: cell-based, human. Here is the method: (§1) Established methods were used to test the activity of IGF-IR antisense oligonucleotide on LNCaP and PC-3 cell growth (crystal violet assay) and apoptosis (FACS). Dose- and sequence-specific suppression of IGF-IR mRNA and protein expression in ATL1101-treated LNCaP and PC3 PC cell lines in vitro were observed by QT-PCR and western blotting. Effects of the IGF-IR antisense oligonucleotide on various putative targets, including IGF-IR and downstream targets were evaluated using western blotting.
Cells were transfected with indicated concentrations of ATL1101, control oligodeoxynucleotides or oligofectamine as in FIGS. 1A(i)-1A(ii). Three days after treatment, cell viability was determined by crystal violet assay. Viable cell density was normalized to that of cells treated with oligofectamine. Points, means of triplicate analysis; bars, SE. *, p<0.05 differs from control oligodeoxynucleotide treatment group. **, p<0.01 differs from control oligodeoxynucleotide treatment group by Student's t test.

In a further data set the test system is IGF-IRβ, p-AKT, pERK1/2. The data set is described as follows: PC3 xenograft tumor proteins, western blotting. In kind it is in vivo. Particulars: after 7 days of treatment; two of three mice. Here is the method:
Total PC3 xenograft tumor proteins were extracted after the treatment of IGFI-R antisense oligonucleotide or control oligodeoxynucleotide for 7 days and IGF-IRβ, p-AKT, pERK1/2, and vinculin protein levels were analyzed by western blotting. Tumor growth ratio of corresponding tumors are also shown (FIG. 5E).

The subject of the next data set is Ki67. The data set is described as follows: Ki67 immunohistochemistry in psoriatic skin biopsies after topical treatment. In kind it is in vivo. The conditions noted are these: topically applied. How it is done: The present inventors assessed proliferation by Ki67 labeling in paraffin wax-embedded, formalin-fixed, 3 mm diameter, full-thickness psoriatic skin biopsies at the conclusion of the treatment phase of topically applied ATL1101. The tissue was analyzed to assess the effect of the antisense treatments on Ki67 expression using immunohistochemical analysis.

The subject of data set [2] is LNCaP cells. Put plainly: LNCaP cell cycle and apoptosis, flow cytometry with propidium iodide. Particulars: 100 nM. In kind it is cell-based, human. How it is done:
as §1
The Effect of IGF-IR silencing with IGF-IR antisense oligonucleotide (ATL1101) on LNCaP and PC3 cell apoptosis and cell cycle is shown in FIGS. 4A(i)-(ii), 4B, 4C(i)-(ii), and Table 2. Cells were transfected with indicated concentrations of ATL1101, control oligodeoxynucleotide or oligofectamine as in FIGS. 1A(i)-1B(ii). Two days after treatment, cell cycle analysis was determined by flow cytometry using propidium iodide staining. […] In FIGS. 4C(i)-(ii), LNCaP (FIG. 4C (i)) or PC-3 (FIG. 4C (ii)) cells were transfected with indicated concentration of ATL1101 or control oligodeoxynucleotide (ISIS 306064) for two days. Cells were then cultured in FBS media for one day and in serum-free media for one day. Whole cell lysates (30 μg) were subjected to SDS-PAGE and immunoblotted to assess Cyclin D1, Cyclin E, p-RB, total Rb, and p27 protein levels. Oligo, oligofectamine treated cells only.

Another data set deals with Ptx-R PC3 cells. The data set is described as follows: Ptx-R PC3 viable cells after transfection with or without Paclitaxel. In kind it is cell-based, human. Here is the method: The number of viable PC3 and PtxR PC3 cells was determined 72 hours after the second transfection.
[…] The number of viable cells remaining was determined 72 hours after the second transfection treatment. ATL1101 treatment enhances the Ptx-R sensitivity to Paclitaxel under standard culture conditions. For example, there was approximately 45% cell viability with 100 nM Paclitaxel and 25 nM control oligodeoxynucleotide whereas, only 25 nM Paclitaxel is needed in the presence of 25 nM ATL1101 to produce the same reduction in cell viability.

Marks after values point to notes of the source that are not given here.

As for “cgaaggaaacaatactccga (CGAAGGAAACAATACTCCGA; 2'-MOE modified, pattern not given here) [ISIS 175317, 2′-MOE-modified IGF-IR antisense oligonucleotide, also known as ATL1101]”, in the data set with LNCaP cells [1] (FBS media, achieved by 100 nM, three days after treatment), the “maximum reduction of cell viability relative to control” value is about 60%. Moreover, the “suppression of cell viability” value in the data set on LNCaP cells [1] (androgen-deprived conditions (CSS), 25 nM) amounted to 60%. In addition, in the data set with IGF-IRβ, p-AKT, pERK1/2, the “IGF-IR expression in tumor” value is given as “decreased”; the “activation of AKT and ERK1/2 in tumor” value is “suppressed”. Further, the “Ki67 by length (mm) and area (mm squared) vs. mismatch control” value in the data set with Ki67 is recorded as “Statistically significant reduction”. Further, in the data set with LNCaP cells [2] (CSS condition), the “% of total cells, G0/G1” value was 13.3%; the “% of total cells, G2/M” value turned out to be 1.2%; the “% of total cells, S” value is 1.2%; the “% of total cells, Sub G0/G1” value is 84.3%. The “subG0/G1 + G0/G1:S + G2/M” value with LNCaP cells [2] (CSS condition) is listed as 40.7***. Besides, in the data set with LNCaP cells [2] (FBS condition), the “% of total cells, G0/G1” value was found to be 32.8%; the “% of total cells, G2/M” value was 2.8%; the “% of total cells, S” value stood at 3.4%; the “subG0/G1 + G0/G1:S + G2/M” value is recorded as 15.1**. The “% of total cells, Sub G0/G1” value in the data set on LNCaP cells [2] (FBS condition, two days after treatment) was 61%. Besides, the “Paclitaxel concentration needed to produce the same reduction in cell viability (approximately 45% viability)” value in the data set on Ptx-R PC3 cells (in the presence of 25 nM ATL1101) is 25 nM. Further, in the data set with Ptx-R PC3 cells (up to 250 nM, 72 hours after second transfection, standard culture conditions), the “sensitivity of viable cell number to ATL1101” value was “retain ATL1101 sensitivity”.
